Results published in patent US20040048860A1, “Use of selective noradrenaline reuptake inhibitors for the treatment of tension-type headache” (priority 2000, published 2004).
Entries after “also recorded” stand apart in the source; their conditions may differ. Like-named read-outs stand apart in the source and are kept apart here.

Legend:
[1] = system: chronic tension-type headache; conditions: prophylactic; cited from earlier work
[2] = system: chronic tension-type headache; test: Prophylactic treatment with reboxetine in patients with chronic tension-type headache (headache diary); type: in vivo, human
Excerpt: Prophylactic treatment with reboxetine has been given to 10 patients with chronic tension-type headache treated at the outpatient headache clinic at the Department of Neurology, Glostrup Hospital, University of Copenhagen, Denmark. There were 5 women and 5 men with a mean age of 44 years. All patients had been suffering from chronic tension-type headache for several years, and had been treatment resistant to other headache prophylactics. Before treatment, the patents underwent a general and a neurological examination and completed a diagnostic headache diary during a four-week run-in period.
The patients filled in a headache diary before and during treatment recording headache characteristics, accompanying symptoms and intake of analgesics.
In total, 10 patents have been treated with reboxetne (as the methanesulphonate salt). […] The patents were instructed to take the tablet two to three hours before bedtime. Four patients stopped treatment within the first 4 weeks due to side effects. […] Efficacy was estimated to be very good in 66% of the patients that fulfilled the treatment series.

[3] = patients with chronic tension-type headache, 4 mg to 8 mg once daily, headache diary

| SMILES | reduces headache [1] | side effects [1] | Efficacy estimated to be very good, share of the patients that fulfilled the treatment series ([2]; 6 patients that completed the treatment series) | side effects ([2]; 10 patients treated, 4 mg to 8 mg once daily) | reduction in consumption of analgesics [2, 3] | reduction in intensity [2, 3] | reduction of AUC (intensity×duration) [2, 3] | Headache frequency reduced ([2]; patients with chronic tension-type headache, initial dose 4 mg once daily, final dose 8 mg once daily, headache diary before vs during treatment) | patients that stopped treatment due to side effects ([2]; within the first 4 weeks, 10 patients treated) |
| --- | --- | --- | --- | --- | --- | --- | --- | --- | --- |
| CN(C)CCC=C1c2ccccc2CCc2ccccc21 [Amitriptyline] | 30% | many side effects, such as sedation and dryness of mouth | – | – | – | – | – | – | – |
| CCOc1ccccc1OC(c1ccccc1)C1CNCCO1 (stereo not drawn) [reboxetne, 2-[α-(2-ethoxy)-phenoxy-benzyl]morpholine] | – | – | 66% | Sleeping problems and dizziness were the most common side effect; also recorded: No serious side effects were reported | 55% | 78% | 47% | 10% | Four |
